In the test the target is human IDO1 (Homo sapiens, UniProt P14902). The test can be described thus: Assessment of human IDO-1 inhibitory activity in HEK cells (human IDO1/HEK293 cells, kynurenine read-out with Ehrlich reagent, absorbance 490 nm). Format: cell-based. Set-up: expressed in transfected cells. As to conditions: HEK Human IDO-1 cellular assay. The gist of the method:
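Kynurenine output from stably IDO1-transfected HEK293 cells (10,000/well, phenol red-free RPMI, 10% FBS) after 20 h compound exposure at 37 °C. The reaction was stopped with 0.2% TCA and heated 30 min at 50 °C, then the supernatant was mixed with Ehrlich reagent and read at 490 nm. IC50 was set against DMSO and a 500 nM reference standard as 0 and 100% inhibition.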

human IDO1, sequence (P14902 whole entry): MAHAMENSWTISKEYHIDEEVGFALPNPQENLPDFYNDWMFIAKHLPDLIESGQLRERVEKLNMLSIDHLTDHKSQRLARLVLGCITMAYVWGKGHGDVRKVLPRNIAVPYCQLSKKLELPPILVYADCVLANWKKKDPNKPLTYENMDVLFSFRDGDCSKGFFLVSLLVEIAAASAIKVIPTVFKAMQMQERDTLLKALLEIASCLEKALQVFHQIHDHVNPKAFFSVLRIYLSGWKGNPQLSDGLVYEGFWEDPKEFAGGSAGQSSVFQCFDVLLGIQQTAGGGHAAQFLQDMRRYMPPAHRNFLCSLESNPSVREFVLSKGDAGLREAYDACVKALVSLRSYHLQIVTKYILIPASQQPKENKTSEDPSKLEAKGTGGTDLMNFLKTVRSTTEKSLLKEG

Turning to `CCN(c1ccc([C@@H](COC)CC(=O)O)cc1NC(=O)Nc1ccc(OC)nc1)C1CCOCC1` (single isomer, unassigned) [Example 426], the IC50 is more than 50 nM.

As for `CCN(c1ccc([C@@H](COC)CC(=O)O)cc1NC(=O)Nc1cnc(C)nc1)C1CCOCC1` (single isomer, unassigned) [Example 427], the IC50 is more than 50 nM.

In the case of `CCN(c1ccc([C@@H](COC)CC(=O)O)cc1NC(=O)Nc1cc(C)on1)C1CCOCC1` (single isomer, unassigned) [Example 428], the IC50 is more than 50 nM.

With `CCN(c1ccc([C@@H](COC)CC(=O)O)cc1NC(=O)Nc1cc(C)no1)C1CCOCC1` (single isomer, unassigned) [Example 429], the IC50 was more than 50 nM.

As to `CCOc1ccc(NC(=O)Nc2cc([C@@H](COC)CC(=O)O)ccc2N(CC)C2CCOCC2)cc1` (single isomer, unassigned) [Example 432], the IC50 was more than 50 nM.

`CCN(c1ccc([C@@H](COC)CC(=O)O)cc1NC(=O)Nc1ccc(C)cc1)C1CCOCC1` (single isomer, unassigned) [Example 433]: the IC50 was more than 50 nM.

Turning to `CCN(c1ccc([C@H](COC)CC(=O)O)cc1NC(=O)Nc1ccc(Cl)cc1F)C1CCOCC1` (single isomer, unassigned) [Example 434], the IC50 was less than 50 nM.

For `CCN(c1ccc([C@H](COC)CC(=O)O)cc1NC(=O)Nc1ccc(OC)cc1F)C1CCOCC1` (single isomer, unassigned) [Example 435], the IC50 is more than 50 nM.

Regarding `CCN(c1ccc([C@H](COC)CC(=O)O)cc1NC(=O)Nc1ccc(OC(F)F)cc1)C1CCOCC1` (single isomer, unassigned) [Example 436], the IC50 is more than 50 nM.

With `CCN(c1ccc([C@H](COC)CC(=O)O)cc1NC(=O)Nc1ccc(OC)nc1)C1CCOCC1` (single isomer, unassigned) [Example 437], the IC50 is more than 50 nM.

In the case of `CCN(c1ccc([C@H](COC)CC(=O)O)cc1NC(=O)Nc1cnc(C)nc1)C1CCOCC1` (single isomer, unassigned) [Example 438], the IC50 is more than 50 nM.

As for `CCN(c1ccc([C@H](COC)CC(=O)O)cc1NC(=O)Nc1cc(C)on1)C1CCOCC1` (single isomer, unassigned) [Example 439], the IC50 was more than 50 nM.

Take `CCN(c1ccc([C@H](COC)CC(=O)O)cc1NC(=O)Nc1cc(C)no1)C1CCOCC1` (single isomer, unassigned) [Example 440]: the IC50 was more than 50 nM.

Turning to `CCC(CC(=O)O)c1ccc(N2C[C@@H]3C[C@H]2CN3C(=O)OC(C)(C)C)c(Nc2ccc(C)cc2)c1` (single isomer, unassigned) [Example 445], the IC50 was less than 5 nM.

Take `CCC(CC(=O)O)c1ccc(N2C[C@@H]3C[C@H]2CN3C(=O)OC(C)(C)C)c(Nc2ccccc2)c1` (single isomer, unassigned) [Example 446]: the IC50 was less than 50 nM.

For the molecule `CCC(CC(=O)O)c1ccc(N2C[C@@H]3C[C@H]2CN3C(=O)OC(C)(C)C)c(Nc2ccc(C)cc2)c1` (single isomer, unassigned) [Example 447], the IC50 is less than 50 nM.

Regarding `CCOc1ncc(Nc2cc([C@@H](CC)CC(=O)O)ccc2N(CC)C2CCOCC2)cn1` (single isomer, unassigned) [Example 455], the IC50 is less than 50 nM.

On to `CC[C@@H](CC(=O)O)c1ccc(N(CC)C2CCOCC2)c(Nc2ccc(Cl)cc2)c1` (single isomer, unassigned) [Example 456], for which the IC50 is less than 5 nM.

In the case of `CCc1cnc(Nc2cc([C@@H](CC)CC(=O)O)ccc2N(CC)C2CCOCC2)nc1` (single isomer, unassigned) [Example 457], the IC50 was less than 50 nM.

On to `CC[C@@H](CC(=O)O)c1ccc(N(CC)C2CCOCC2)c(Nc2ccc(C#N)cc2)c1` (single isomer, unassigned) [Example 458], for which the concentration for half-maximal inhibition (IC50) was less than 5 nM.

On to `CC[C@@H](CC(=O)O)c1ccc(N(CC)C2CCOCC2)c(Nc2ccn3nccc3n2)c1` (single isomer, unassigned) [Example 468], for which the IC50 is more than 50 nM.

The term IC50 denotes the point on the concentration scale where inhibition reaches its midpoint.

(Values after patent publication US9790169B2, “IDO inhibitors” (BRISTOL-MYERS SQUIBB COMPANY, priority 2015, dated 2017).)
